From patent US5109133A, “Antibiotic trienomycins and their production” (priority 1985, dated 1992)
Entries after “also recorded” stand apart in the source; their conditions may differ. Read-outs that look alike come from different tables or passages of the source.

What was measured:
[1] = system: Piricularia oryzae KF 180; experiment: microbe, parasite or virus in culture; type: cell-based; details: at 1 mg/ml; read-out: Inhibitory zone
[2] = system: sarcoma-180; experiment: Antitumor activity, life prolongation in sarcoma-180-carcinoma-bearing ICR mice; type: in vivo; details: intraperitoneal, 1-5 days and 7-11 days
Excerpt: Trienomycin A, B or C is administrated intraperitoneally in sarcoma-180-carcinoma-bearing ICR mice for 1-5 days and 7-11 days. The life prolongation effects are observed as shown in the following: […]

[3] = Solubility; type: physicochemical
[4] = Stability; type: physicochemical
[5] = Nature (acidity); type: physicochemical
[6] = system: fungi; experiment: Antifungal activity (in words); type: cell-based; details: trienomycins
[7] = system: sarcoma-180 carcinoma cells; experiment: Growth inhibition of sarcoma-180 carcinoma cells; type: cell-based
[8] = system: HeLa S3 cells; experiment: Cytocidal action on HeLa S3 cells; details: for growth inhibitory activities: HeLa S3 cells
[9] = system: fungi; details: various fungi; known antibiotics; cited from earlier work
[10] = chloroform, dichloromethane, tetrahydrofuran, ethyl acetate, butyl acetate, acetone, methanol, ethanol
[11] = acidic condition at ambient temperature

## COC1C=CC=CC=CCC(OC(=O)C(C)NC(=O)C2CCCCC2)C(C)C(O)C(C)=CCCc2cc(O)cc(c2)NC(=O)C1 (stereo not drawn) [Trienomycin A]
[1]
  zone of inhibition at 1000 µg/mL: 20 mm
[2]; 10 mg/kg/day
  Life Prolongation Ratio: 33%
[2]; 20 mg/kg/day
  Life Prolongation Ratio: 76%
[3]; [10]
  Solubility: Soluble
[3]; hexane, water
  Solubility: Insoluble
[4]; [11]
  Stability: Stable
[4]; alkaline condition over pH 10
  Stability: Instable
[5]
  Nature: weakly acidic substance; also recorded: weak acidic substances
[6]
  antifungal activity: exhibit antifungal activity against some kind of fungi
[7]
  growth inhibitory activities: growth inhibitory activities
[8]; 1.0 μg/ml
  death of the HeLa S3 cells: death of the HeLa S3 cells
[8]
  growth inhibitory activities: growth inhibitory activities

## CCC(C)C(=O)NC(C)C(=O)OC1CC=CC=CC=CC(OC)CC(=O)Nc2cc(O)cc(c2)CCC=C(C)C(O)C1C (stereo not drawn) [Trienomycin C]
[1]
  zone of inhibition at 1000 µg/mL: 12 mm
[2]; 10 mg/kg/day
  Life Prolongation Ratio: 50%
[2]; 20 mg/kg/day
  Life Prolongation Ratio: 110%
[3]; [10]
  Solubility: Soluble
[3]; hexane, water
  Solubility: Insoluble
[4]; [11]
  Stability: Stable
[4]; alkaline condition over pH 10
  Stability: Instable
[5]
  Nature: weakly acidic substance; also recorded: weak acidic substances
[6]
  antifungal activity: exhibit antifungal activity against some kind of fungi
[7]
  growth inhibitory activities: growth inhibitory activities
[8]; 2.0 μg/ml
  death of the HeLa S3 cells: death of the HeLa S3 cells
[8]
  growth inhibitory activities: growth inhibitory activities

## COC1C=CC=CC=CCC(OC(=O)C(C)NC(=O)CC(C)C)C(C)C(O)C(C)=CCCc2cc(O)cc(c2)NC(=O)C1 (stereo not drawn) [Trienomycin B]
[1]
  zone of inhibition at 1000 µg/mL: 15 mm
[2]; 10 mg/kg/day
  Life Prolongation Ratio: 45%
[2]; 20 mg/kg/day
  Life Prolongation Ratio: 80%
[3]; [10]
  Solubility: Soluble
[3]; hexane, water
  Solubility: Insoluble
[4]; [11]
  Stability: Stable
[4]; alkaline condition over pH 10
  Stability: Instable
[5]
  Nature: weakly acidic substance; also recorded: weak acidic substances
[6]
  antifungal activity: exhibit antifungal activity against some kind of fungi
[7]
  growth inhibitory activities: growth inhibitory activities
[8]; 2.0 μg/ml
  death of the HeLa S3 cells: death of the HeLa S3 cells
[8]
  growth inhibitory activities: growth inhibitory activities

## COC1C=CC=CC=CCC(OC(=O)C(C)NC(=O)C2CCCCC2)C(C)C(O)C(C)=CCCC2=CC(=O)C=C(NC(=O)C1)C2=O (stereo not drawn) [mycotrienin I]
[9]
  antifungal activity: exhibit antifungal activity against various fungi

## CO[C@@H]1/C=C/C=C/C=C\C[C@H](OC(=O)[C@@H](C)NC(=O)CC(C)C)[C@@H](C)[C@H](O)/C(C)=C/CCC2=CC(=O)C=C(NC(=O)C1)C2=O [ansatrienin A3]
[9]
  antifungal activity: exhibit antifungal activity against various fungi

## COC1C=CC=CC=CCC(OC(=O)C(C)NC(=O)C2CCCCC2)C(C)C(O)C(C)=CCCc2cc(O)cc(c2O)NC(=O)C1 (stereo not drawn) [mycotrienin II]
[9]
  antifungal activity: exhibit antifungal activity against various fungi
